Structures can show the parent of a compound that is named as a salt. Where two headings read alike, the source gives them in different places.
Tested on: panel of 240 cancer cell lines
Test: Proliferation in a broad panel of 240 cancer cell lines, 2D culture (Eurofins Panlabs Oncopanel)
Type: cell-based
Conditions: read-out: IC50
Method: Cell lines used in these experiments were obtained from the following sources and were cultured according to conditions specified by the respective cell banks. […] The cell lines listed above were tested for mycoplasma and were negative. Cells were authenticated by STR method or vendor protocols. All 313 cell lines in the CRIPSR pooled screen were purchased from commercial vendors and were STR authenticated and mycoplasma negative. A broad panel of cancer cell lines was screened in the Eurofins Oncopanel. All cells in this panel were mycoplasma negative and STR verified.

With `NC1CCC(S(=O)(=O)N2C3CCC2CC(NC(=O)c2cc(C4CC4)on2)C3)CC1` [EPZ028862, N-((1R,3R,5S)-8-((1r,4R)-4-aminocyclohexylsulfonyl)-8-aza-bicyclo[3.2.1]octan-3-yl)-5-cyclopropylisoxazole-3-carboxamide hydrochloride] the IC50 (5637, Bladder) was over 25 µM, the IC50 (A7, Skin) was over 25 µM and the IC50 (AGS, Colon/GI) was over 25 µM. It also gave an IC50 (BC-1, Haematopoietic and lymphoid) of over 25 µM, an IC50 (BM-1604, BM-1604, Prostate) of over 25 µM and an IC50 (C32, Skin) of over 25 µM. It also gave an IC50 (C32TG, Skin) of over 25 µM, an IC50 (C-4 I, Female GU) of over 25 µM and an IC50 (CEM/C1, CEM-C1, Haematopoietic and lymphoid) of over 25 µM. For the same molecule, the IC50 (CML-T1, CML-T1, Haematopoietic and lymphoid) was over 25 µM, the IC50 (DB, Haematopoietic and lymphoid) was over 25 µM and the IC50 (DK-MG, CNS) was over 25 µM. It also gave an IC50 (EB-3, Haematopoietic and lymphoid) of over 25 µM, an IC50 (EM-2, Haematopoietic and lymphoid) of over 25 µM and an IC50 (ES-2, Female GU) of over 25 µM. It also gave an IC50 (H4, CNS) of over 25 µM, an IC50 (HLE, Liver) of over 25 µM and an IC50 (HLF, Liver) of over 25 µM. It also gave an IC50 (HOS, Soft Tissue) of over 25 µM, an IC50 (HT, Haematopoietic and lymphoid) of over 25 µM and an IC50 (HT-3, Female GU) of over 25 µM. The IC50 (HUH-6-clone5, HUH-6 Clone 5, Liver) was over 25 µM, the IC50 (Homo sapiens, 22Rv1, 22Rv1, Prostate) was over 25 µM and the IC50 (Homo sapiens, 639-V, Bladder) was over 25 µM. The IC50 (Homo sapiens, 647-V, Bladder) was over 25 µM, the IC50 (Homo sapiens, 769-P, Kidney) was over 25 µM and the IC50 (Homo sapiens, 786-0, 786-O, Kidney) was over 25 µM. It also gave an IC50 (Homo sapiens, A101D, Skin) of over 25 µM, an IC50 (Homo sapiens, A 172, A172, CNS) of over 25 µM and an IC50 (Homo sapiens, A204, A204, Soft Tissue) of over 25 µM. It also gave an IC50 (Homo sapiens, A498, A498, Kidney) of over 25 µM, an IC50 (Homo sapiens, A549, A549, Lung) of over 25 µM and an IC50 (Homo sapiens, A673, A-673, Soft Tissue) of over 25 µM. The IC50 (Homo sapiens, A-375, A375, Skin) was over 25 µM, the IC50 (Homo sapiens, A-427, A427, Lung) was over 25 µM and the IC50 (Homo sapiens, A-431, A431, Skin) was over 25 µM. It also gave an IC50 (Homo sapiens, ACHN, Kidney) of over 25 µM, an IC50 (Homo sapiens, AN3-CA, AN3 CA, Female GU) of over 25 µM and an IC50 (Homo sapiens, ARH-77, ARH-77, Haematopoietic and lymphoid) of over 25 µM. For the same molecule, the IC50 (Homo sapiens, ASPC1, AsPC-1, Pancreas) was over 25 µM, the IC50 (Homo sapiens, AU565, AU565, Breast) was over 25 µM and the IC50 (Homo sapiens, BE(2)-C, BE(2)C, CNS) was over 25 µM. For the same molecule, the IC50 (Homo sapiens, BFTC-905, BFTC-905, Bladder) was over 25 µM, the IC50 (Homo sapiens, BHT-101, BHT-101, Endocrine) was over 25 µM and the IC50 (Homo sapiens, BPH-1, BPH1, Prostate) was over 25 µM. For the same molecule, the IC50 (Homo sapiens, BT-20, BT20, Breast) was over 25 µM, the IC50 (Homo sapiens, BT-474, BT474, Breast) was over 25 µM and the IC50 (Homo sapiens, BT-549, BT-549, Breast) was over 25 µM. It also gave an IC50 (Homo sapiens, BV-173, BV-173, Haematopoietic and lymphoid) of over 25 µM, an IC50 (Homo sapiens, BXPC-3, BxPC-3, Pancreas) of over 25 µM and an IC50 (Homo sapiens, BeWo, Female GU) of over 25 µM. It also gave an IC50 (Homo sapiens, C-4-II, C-4 II, Female GU) of over 25 µM, an IC50 (Homo sapiens, C-33-A, C-33A, Female GU) of over 25 µM and an IC50 (Homo sapiens, CAKI-1, Caki-1, Kidney) of over 25 µM. It also gave an IC50 (Homo sapiens, CAKI-2, Caki-2, Kidney) of over 25 µM, an IC50 (Homo sapiens, CAL-27, Cal 27, Head and Neck) of over 25 µM and an IC50 (Homo sapiens, CAL-62, CAL-62, Endocrine) of over 25 µM. The IC50 (Homo sapiens, CAMA-1, CAMA-1, Breast) was over 25 µM, the IC50 (Homo sapiens, CAPAN-1, Capan-1, Pancreas) was over 25 µM and the IC50 (Homo sapiens, CCF-STTG1, CCF-STTG1, CNS) was over 25 µM. For the same molecule, the IC50 (Homo sapiens, CCRF-CEM, CCRFCEM, Haematopoietic and lymphoid) was over 25 µM, the IC50 (Homo sapiens, CFPAC-1, CFPAC-1, Pancreas) was over 25 µM and the IC50 (Homo sapiens, CGTH-W-1, CGTH-W-1, Endocrine) was over 25 µM. The IC50 (Homo sapiens, CHL-1, CHL-1, Skin) was over 25 µM, the IC50 (Homo sapiens, CHP-212, CHP-212, CNS) was over 25 µM and the IC50 (Homo sapiens, COLO 201, Colo 201, Colon/GI) was over 25 µM. It also gave an IC50 (Homo sapiens, COLO 205, Colo 205, Colon/GI) of over 25 µM, an IC50 (Homo sapiens, COLO 320DM, Colon/GI) of over 25 µM and an IC50 (Homo sapiens, COLO-320-HSR, Colo 320 HSR, Colon/GI) of over 25 µM. It also gave an IC50 (Homo sapiens, COLO-829, COLO 829, Skin) of over 25 µM, an IC50 (Homo sapiens, COR-L23, COR-L23, Lung) of over 25 µM and an IC50 (Homo sapiens, COR-L105, COR-L105, Lung) of over 25 µM. It also gave an IC50 (Homo sapiens, CRO-AP2, CRO-AP2, Haematopoietic and lymphoid) of over 25 µM, an IC50 (Homo sapiens, Calu-1, Calu1, Lung) of over 25 µM and an IC50 (Homo sapiens, Calu-6, Calu6, Lung) of over 25 µM. For the same molecule, the IC50 (Homo sapiens, Caov-3, CaOV3, Female GU) was over 25 µM, the IC50 (Homo sapiens, Capan-2, Capan-2, Pancreas) was over 25 µM and the IC50 (Homo sapiens, ChaGo-K-1, ChaGoK1, Lung) was over 25 µM. For the same molecule, the IC50 (Homo sapiens, D283 Med, CNS) was over 25 µM, the IC50 (Homo sapiens, DBTRG-05MG, CNS) was over 25 µM and the IC50 (Homo sapiens, DLD-1, DLD-1, Colon/GI) was over 25 µM. The IC50 (Homo sapiens, DMS-53, DMS53, Lung) was over 25 µM, the IC50 (Homo sapiens, DMS-114, DMS114, Lung) was over 25 µM and the IC50 (Homo sapiens, DMS-273, DMS273, Lung) was over 25 µM. The IC50 (Homo sapiens, DOHH-2, DOHH-2, Haematopoietic and lymphoid) was 8.66 µM, the IC50 (Homo sapiens, DU-145, DU145, Prostate) was over 25 µM and the IC50 (Homo sapiens, Daoy, CNS) was over 25 µM. It also gave an IC50 (Homo sapiens, Daudi, Haematopoietic and lymphoid) of over 25 µM, an IC50 (Homo sapiens, Detroit 562, Detroit 562, Head and Neck) of over 25 µM and an IC50 (Homo sapiens, DoTc2-4510, DoTc2 4510, Female GU) of over 25 µM. The IC50 (Homo sapiens, EFM-19, EFM-19, Breast) was over 25 µM, the IC50 (Homo sapiens, FaDu, Head and Neck) was over 25 µM and the IC50 (Homo sapiens, G-401, G-401, Kidney) was over 25 µM. The IC50 (Homo sapiens, G-402, G-402, Kidney) was over 25 µM, the IC50 (Homo sapiens, HCT-8, HCT-8, Colon/GI) was over 25 µM and the IC50 (Homo sapiens, HCT-15, HCT-15, Colon/GI) was over 25 µM. The IC50 (Homo sapiens, HCT-116, HCT-116, Colon/GI) was over 25 µM, the IC50 (Homo sapiens, HEC-1-A, Female GU) was over 25 µM and the IC50 (Homo sapiens, HEL 92.1.7, HEL-92-1-7, Haematopoietic and lymphoid) was over 25 µM. The IC50 (Homo sapiens, HMCB, Skin) was over 25 µM, the IC50 (Homo sapiens, HPAF-II, Pancreas) was over 25 µM and the IC50 (Homo sapiens, HT1197, HT-1197, Bladder) was over 25 µM. The IC50 (Homo sapiens, HT-29, HT-29, Colon/GI) was over 25 µM, the IC50 (Homo sapiens, HT-1080, HT-1080, Soft Tissue) was over 25 µM and the IC50 (Homo sapiens, HT-1376, HT1376, Bladder) was over 25 µM. The IC50 (Homo sapiens, HeLa, Female GU) was over 25 µM, the IC50 (Homo sapiens, HepG2, HepG2, Liver) was over 25 µM and the IC50 (Homo sapiens, Hs 294T, Skin) was over 25 µM. It also gave an IC50 (Homo sapiens, Hs 695T, Skin) of over 25 µM, an IC50 (Homo sapiens, Hs746T, HS 746T, Colon/GI) of over 25 µM and an IC50 (Homo sapiens, Hs-578T, Hs 578T, Breast) of over 25 µM. It also gave an IC50 (Homo sapiens, HuCCT-1, HuCCT1, Liver) of over 25 µM, an IC50 (Homo sapiens, HuP-T4, HuP-T4, Pancreas) of over 25 µM and an IC50 (Homo sapiens, J-RT3-T3-5, J-RT3-T3-5, Haematopoietic and lymphoid) of over 25 µM. It also gave an IC50 (Homo sapiens, JEG-3, JEG-3, Female GU) of over 25 µM, an IC50 (Homo sapiens, Jurkat, Haematopoietic and lymphoid) of over 25 µM and an IC50 (Homo sapiens, K562, K562, Haematopoietic and lymphoid) of over 25 µM. The IC50 (Homo sapiens, KATO III, Colon/GI) was over 25 µM, the IC50 (Homo sapiens, L-428, L-428, Haematopoietic and lymphoid) was over 25 µM and the IC50 (Homo sapiens, LNCaP, Prostate) was over 25 µM.

From paper PMC5983452 (PLoS ONE, 2018)
